Measured values: PMC5897044 (Cell host & microbe, 2017)
Bridge positions count the residues as written; N and C are the ends. Peptide text beside a SMILES is read from it.

System: PMN infiltration in skin
Settings: mouse, in vivo

Structure (SMILES): C[C@@H](O)[C@H](NC(=O)[C@H](CO)NC(=O)[C@@H](N)Cc1ccc(O)cc1)C(=O)N[C@H]1CSC(=O)[C@H](Cc2ccccc2)NC(=O)[C@H](Cc2ccc(O)cc2)NC(=O)[C@H](Cc2ccc(O)cc2)NC(=O)[C@H](CO)NC1=O [S. caprae AIP] (H-YSTCSYYF; thioester 4-C)
- magnitude of PMN infiltration by sterile injection, AIP vs vehicle: equivalent
